Measured values from paper PMC9376946, “Peptide-RNA Coacervates as a Cradle for the Evolution of Folded Domains” (Journal of the American Chemical Society, 2022).

Experiments:
polyU [1] = experiment: Coacervate (droplet) formation with polyU, optical microscopy; assay type: physicochemical
Description: Optical microscopy images of phase-separated samples were taken at the de Picciotto Cancer Cell Observatory Life Sciences Core Facilities (Weizmann Institute of Science) using a 100× objective (oil immersion) on a Leica DMI8 microscope with differential interface contrast. We used 1–2 μL of the sample to make a small drop in an imaging chamber produced by attaching a coverslip to a clean glass slide using a thin strip of double-sided tape (AJ Sign World). Images were processed using the software package Fiji (NIH).
Lyophilized, spin-labeled peptides were dissolved in Milli-Q water and centrifuged at 4000 rpm for 10 min to remove insoluble aggregates. The soluble fractions were used to prepare stock solutions of 250–500 μM peptide. Labeled peptide concentrations were determined by comparing the area under the curve of the EPR signal against that of standard solutions of 10–285 μM TEMPO. For the EPR measurements in D2O, 200 μL of the stock solution was lyophilized and re-dissolved in D2O. The concentration of the unlabeled peptide stock solutions was determined using the bicinchoninic acid assay (Thermo Fisher Scientific) and ranged from 0.8 to 1.2 mM peptide. A stock solution of 500 mM MES, pH 5.6 was used to adjust all samples to a final concentration of 50 mM MES, pH 5.6. Aliquots of 10 mg/mL polyuridylic acid (polyU; Sigma Aldrich) were prepared in Milli-Q water and diluted as necessary. For CW-EPR measurements, a quartz capillary of 0.6 mm i.d. and 0.84 mm o.d. was filled with 7–8 μL of the sample and sealed with Critoseal (Fisherbrand, Fisher Scientific) at one end. A single capillary was placed in an X-band EPR tube of 2 mm i.d. and 2.4 mm o.d. for measurements, except for spin concentration below 50 μM, where two capillaries were used.
Each sample was freshly prepared and the time to collect […] CW-EPR data was 30–40 min.

[2] = earlier study, trifluoroethanol titration followed by CD; ref [17]; cited from earlier work
polyU [3] = details: ref [17]; cited from earlier work
Excerpt: The basis for the work presented here is the construct Precursor-Arg (PA).[17] PA consists of a single helix-hairpin-helix (HhH) motif and is constructed from an alphabet of only 10 amino acid types. The sequence of PA (Table 1) is biased specifically for those amino acids that were thought to be present on the early earth[35] and is the result of an ancestor sequence reconstruction of the (HhH)2-Fold protein family followed by an experimental deconstruction.[17] PA has two positively charged patches—located at the N-terminus of the first α-helix (residues 1–4, RIRR) and on the second α-helix ... || Using the ColabFold implementation of AlphaFold2,[33] a model of a putative PA dimer was predicted (Figure 1A). […] The dimerization potential of PA was further confirmed by MD simulations (Figure S6). […] This option relies on the dimer having conformations where positive and negative charges are separated, allowing for efficient bidentate binding to the polyU.

coacervate formation with polyU (polyU [1]; concentrations not given): did not form coacervates with polyU
Sequence: RVRRSEIPLGIELEAGTLRLARRPEIRVA [SA]
coacervate formation with polyU (polyU [1]; unlabeled peptide, 1 mg/mL polyU, aggregation also previously reported, ref [17]): did not form coacervates but rather aggregates | α-helical propensity [2]: lower α-helical propensity than PA | coacervate formation or precipitation with polyU (earlier study) (polyU [3]): precipitates with polyU rather than forms coacervates
